Tests used:
Test in all cases: Test B pre-/postemergence
Assay type in all cases: in vivo
Parameters in all cases: key: 0 is no effect; 10 is complete control
[1] = test system: pigweed (Amaranthus retroflexus)
Summary of the method: (§1)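 Seeds were planted and sprayed preemergence, while plants at 2 to 18 cm (1- to 4-leaf stage) were sprayed postemergence at the same time, with test chemical in a non-phytotoxic solvent mixture containing surfactant. After twelve to sixteen days in a greenhouse, injury was rated visually against untreated controls on a 0–10 scale.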

[2] = test system: soybean (Glycine max)
Summary of the method: as §1

[3] = test system: wheat (Triticum aestivum)
Summary of the method: as §1

[4] = test system: velvetleaf (Abutilon theophrasti)
Summary of the method: as §1

[5] = test system: giant foxtail (Setaria faberii)
Summary of the method: as §1

[6] = test system: cocklebur (Xanthium strumarium)
Summary of the method: as §1

[7] = test system: momingglory (Ipomoea hederacea)
Summary of the method: as §1

[8] = test system: crabgrass (Digitaria sanguinalis)
Summary of the method: as §1

[9] = test system: sugar beet (Beta vulgaris)
Summary of the method: as §1

[10] = test system: rape (Brassica napus)
Summary of the method: as §1

[11] = test system: purple nutsedge (Cyperus rotundus)
Summary of the method: as §1

[12] = test system: broadleaf signalgrass (Brachiaria decumbens)
Summary of the method: as §1

[13] = test system: corn (Zea mays)
Summary of the method: as §1

[14] = test system: bedstraw (Galium aparine)
Summary of the method: as §1

[15] = Preemergence, Rate 62 g/ha, scale of 0 to 10

`Cc1cnc(-c2ccc(C(F)(F)F)cc2)nc1C(=O)c1ccc(C(F)(F)F)cc1` [Compound 74] was tested, and the “Plant response rating, Redroot pigweed” value [1, 15] was 0, the “Redroot pigweed plant response rating” value ([1]; Rate 62 g/ha, Postemergence) was 2 and the “Redroot pigweed plant response rating” value ([1]; Rate 125 g/ha, Postemergence) was 2. For the same compound, the “Plant response rating, Redroot pigweed” value ([1]; Rate 125 g/ha, Preemergence) was 0, the “Plant response rating, Redroot pigweed” value ([1]; Rate 250 g/ha, Postemergence) was 8 and the “Plant response rating, Redroot pigweed” value ([1]; Rate 250 g/ha, Preemergence) was 0. The “Plant response rating, Redroot pigweed” value ([1]; Rate 500 g/ha, Postemergence) was 8, the “Plant response rating, Redroot pigweed” value ([1]; Rate 500 g/ha, Preemergence) was 0 and the “Plant response rating, Soybean” value [2, 15] was 0. For the same compound, the “Soybean plant response rating” value ([2]; Rate 62 g/ha, Postemergence) was 2, the “Soybean plant response rating” value ([2]; Rate 125 g/ha, Postemergence) was 2 and the “Plant response rating, Soybean” value ([2]; Rate 125 g/ha, Preemergence) was 0. For the same compound, the “Plant response rating, Soybean” value ([2]; Rate 250 g/ha, Postemergence) was 2, the “Plant response rating, Soybean” value ([2]; Rate 250 g/ha, Preemergence) was 0 and the “Plant response rating, Soybean” value ([2]; Rate 500 g/ha, Postemergence) was 3. For the same compound, the “Plant response rating, Soybean” value ([2]; Rate 500 g/ha, Preemergence) was 0, the “Plant response rating, Wheat” value [3, 15] was 0 and the “Wheat plant response rating” value ([3]; Rate 62 g/ha, Postemergence) was 1. For the same compound, the “Wheat plant response rating” value ([3]; Rate 125 g/ha, Postemergence) was 1, the “Plant response rating, Wheat” value ([3]; Rate 125 g/ha, Preemergence) was 0 and the “Plant response rating, Wheat” value ([3]; Rate 250 g/ha, Postemergence) was 1. For the same compound, the “Plant response rating, Wheat” value ([3]; Rate 250 g/ha, Preemergence) was 0, the “Plant response rating, Wheat” value ([3]; Rate 500 g/ha, Postemergence) was 2 and the “Plant response rating, Wheat” value ([3]; Rate 500 g/ha, Preemergence) was 0. The “Plant response rating, Velvetleaf” value [4, 15] was 0, the “Velvetleaf plant response rating” value ([4]; Rate 62 g/ha, Postemergence) was 1 and the “Velvetleaf plant response rating” value ([4]; Rate 125 g/ha, Postemergence) was 1. The “Plant response rating, Velvetleaf” value ([4]; Rate 125 g/ha, Preemergence) was 0, the “Plant response rating, Velvetleaf” value ([4]; Rate 250 g/ha, Postemergence) was 2 and the “Plant response rating, Velvetleaf” value ([4]; Rate 250 g/ha, Preemergence) was 0. For the same compound, the “Plant response rating, Velvetleaf” value ([4]; Rate 500 g/ha, Postemergence) was 2, the “Plant response rating, Velvetleaf” value ([4]; Rate 500 g/ha, Preemergence) was 0 and the “Plant response rating, Giant foxtail” value [5, 15] was 0. For the same compound, the “Giant foxtail plant response rating” value ([5]; Rate 62 g/ha, Postemergence) was 0, the “Giant foxtail plant response rating” value ([5]; Rate 125 g/ha, Postemergence) was 0 and the “Plant response rating, Giant foxtail” value ([5]; Rate 125 g/ha, Preemergence) was 0. The “Plant response rating, Giant foxtail” value ([5]; Rate 250 g/ha, Postemergence) was 1, the “Plant response rating, Giant foxtail” value ([5]; Rate 250 g/ha, Preemergence) was 0 and the “Plant response rating, Giant foxtail” value ([5]; Rate 500 g/ha, Postemergence) was 1. For the same compound, the “Plant response rating, Giant foxtail” value ([5]; Rate 500 g/ha, Preemergence) was 0, the “Plant response rating, Cocklebur” value [6, 15] was 0 and the “Cocklebur plant response rating” value ([6]; Rate 62 g/ha, Postemergence) was 1. For the same compound, the “Cocklebur plant response rating” value ([6]; Rate 125 g/ha, Postemergence) was 5, the “Plant response rating, Cocklebur” value ([6]; Rate 125 g/ha, Preemergence) was 0 and the “Plant response rating, Cocklebur” value ([6]; Rate 250 g/ha, Postemergence) was 5. For the same compound, the “Plant response rating, Cocklebur” value ([6]; Rate 250 g/ha, Preemergence) was 0, the “Plant response rating, Cocklebur” value ([6]; Rate 500 g/ha, Postemergence) was 5 and the “Plant response rating, Cocklebur” value ([6]; Rate 500 g/ha, Preemergence) was 0. The “Plant response rating, Morningglory” value [7, 15] was 0, the “Morningglory plant response rating” value ([7]; Rate 62 g/ha, Postemergence) was 1 and the “Morningglory plant response rating” value ([7]; Rate 125 g/ha, Postemergence) was 1. For the same compound, the “Plant response rating, Morningglory” value ([7]; Rate 125 g/ha, Preemergence) was 0, the “Plant response rating, Morningglory” value ([7]; Rate 250 g/ha, Postemergence) was 7 and the “Plant response rating, Morningglory” value ([7]; Rate 250 g/ha, Preemergence) was 0. For the same compound, the “Plant response rating, Morningglory” value ([7]; Rate 500 g/ha, Postemergence) was 7, the “Plant response rating, Morningglory” value ([7]; Rate 500 g/ha, Preemergence) was 0 and the “Plant response rating, Crabgrass” value [8, 15] was 0. The “Crabgrass plant response rating” value ([8]; Rate 62 g/ha, Postemergence) was 0, the “Crabgrass plant response rating” value ([8]; Rate 125 g/ha, Postemergence) was 0 and the “Plant response rating, Crabgrass” value ([8]; Rate 125 g/ha, Preemergence) was 0. For the same compound, the “Plant response rating, Crabgrass” value ([8]; Rate 250 g/ha, Postemergence) was 1, the “Plant response rating, Crabgrass” value ([8]; Rate 250 g/ha, Preemergence) was 0 and the “Plant response rating, Crabgrass” value ([8]; Rate 500 g/ha, Postemergence) was 3. For the same compound, the “Plant response rating, Crabgrass” value ([8]; Rate 500 g/ha, Preemergence) was 1, the “Plant response rating, Sugarbeets” value [9, 15] was 0 and the “Sugarbeets plant response rating” value ([9]; Rate 62 g/ha, Postemergence) was 1. For the same compound, the “Sugarbeets plant response rating” value ([9]; Rate 125 g/ha, Postemergence) was 2, the “Plant response rating, Sugarbeets” value ([9]; Rate 125 g/ha, Preemergence) was 0 and the “Plant response rating, Sugarbeets” value ([9]; Rate 250 g/ha, Postemergence) was 6. For the same compound, the “Plant response rating, Sugarbeets” value ([9]; Rate 250 g/ha, Preemergence) was 0, the “Plant response rating, Sugarbeets” value ([9]; Rate 500 g/ha, Postemergence) was 7 and the “Plant response rating, Sugarbeets” value ([9]; Rate 500 g/ha, Preemergence) was 0. For the same compound, the “Plant response rating, Rape” value [10, 15] was 0, the “Rape plant response rating” value ([10]; Rate 62 g/ha, Postemergence) was 1 and the “Rape plant response rating” value ([10]; Rate 125 g/ha, Postemergence) was 1. The “Plant response rating, Rape” value ([10]; Rate 125 g/ha, Preemergence) was 0, the “Plant response rating, Rape” value ([10]; Rate 250 g/ha, Postemergence) was 1 and the “Plant response rating, Rape” value ([10]; Rate 250 g/ha, Preemergence) was 0. For the same compound, the “Plant response rating, Rape” value ([10]; Rate 500 g/ha, Postemergence) was 3, the “Plant response rating, Rape” value ([10]; Rate 500 g/ha, Preemergence) was 0 and the “Plant response rating, Nutsedge” value [11, 15] was 0. For the same compound, the “Nutsedge plant response rating” value ([11]; Rate 62 g/ha, Postemergence) was 0, the “Nutsedge plant response rating” value ([11]; Rate 125 g/ha, Postemergence) was 0 and the “Plant response rating, Nutsedge” value ([11]; Rate 125 g/ha, Preemergence) was 0. The “Plant response rating, Nutsedge” value ([11]; Rate 250 g/ha, Postemergence) was 0, the “Plant response rating, Nutsedge” value ([11]; Rate 250 g/ha, Preemergence) was 0 and the “Plant response rating, Nutsedge” value ([11]; Rate 500 g/ha, Preemergence) was 0. The “B. signalgrass plant response rating” value ([12]; Rate 62 g/ha, Postemergence) was 1, the “B. signalgrass plant response rating” value ([12]; Rate 62 g/ha, Preemergence) was 0 and the “B. signalgrass plant response rating” value ([12]; Rate 125 g/ha, Postemergence) was 1. The “Plant response rating, B. signalgrass” value ([12]; Rate 125 g/ha, Preemergence) was 0, the “Plant response rating, B. signalgrass” value ([12]; Rate 250 g/ha, Postemergence) was 1 and the “Plant response rating, B. signalgrass” value ([12]; Rate 250 g/ha, Preemergence) was 0. For the same compound, the “Plant response rating, B. signalgrass” value ([12]; Rate 500 g/ha, Postemergence) was 2, the “Plant response rating, B. signalgrass” value ([12]; Rate 500 g/ha, Preemergence) was 0 and the “Plant response rating, Corn” value [13, 15] was 0. The “Corn plant response rating” value ([13]; Rate 62 g/ha, Postemergence) was 1, the “Corn plant response rating” value ([13]; Rate 125 g/ha, Postemergence) was 1 and the “Plant response rating, Corn” value ([13]; Rate 125 g/ha, Preemergence) was 0. The “Plant response rating, Corn” value ([13]; Rate 250 g/ha, Postemergence) was 1, the “Plant response rating, Corn” value ([13]; Rate 250 g/ha, Preemergence) was 0 and the “Plant response rating, Corn” value ([13]; Rate 500 g/ha, Postemergence) was 1. The “Plant response rating, Corn” value ([13]; Rate 500 g/ha, Preemergence) was 0, the “Plant response rating, Bedstraw” value [14, 15] was 0 and the “Bedstraw plant response rating” value ([14]; Rate 62 g/ha, Postemergence) was 1. For the same compound, the “Bedstraw plant response rating” value ([14]; Rate 125 g/ha, Postemergence) was 1, the “Plant response rating, Bedstraw” value ([14]; Rate 125 g/ha, Preemergence) was 0 and the “Plant response rating, Bedstraw” value ([14]; Rate 250 g/ha, Postemergence) was 2. The “Plant response rating, Bedstraw” value ([14]; Rate 250 g/ha, Preemergence) was 0, the “Plant response rating, Bedstraw” value ([14]; Rate 500 g/ha, Postemergence) was 6 and the “Plant response rating, Bedstraw” value ([14]; Rate 500 g/ha, Preemergence) was 0.
